# In PubChem BioAssay (NCI):
#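 Cells were grown in 96-well plates and exposed to each compound for 48 hours at five concentrations; endpoints were interpolated linearly between bracketing concentrations, or set to the highest concentration if not reached. At the TGI there is no net growth.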
# Experiments:
# Experiment in all cases: NCI anticancer screen, dose series, 48 h
# A549 NSCLC = tested on: A549 NSCLC
# ACHN renal = tested on: ACHN renal
# HCC-2998 colon = tested on: HCC-2998 colon
# IGROV1 ovarian = tested on: IGROV1 ovarian
# K-562 leukemia = tested on: K-562 leukemia
# KM12 colon = tested on: KM12 colon
# LOX IMVI melanoma = tested on: LOX IMVI melanoma
# MALME-3M melanoma = tested on: MALME-3M melanoma
# NCI-H23 lung = tested on: NCI-H23 lung
# NCI-H522 lung = tested on: NCI-H522 lung
# OVCAR-4 ovarian = tested on: OVCAR-4 ovarian
# OVCAR-8 ovarian = tested on: OVCAR-8 ovarian
# RXF 393 renal = tested on: RXF 393 renal
# SF-295 CNS = tested on: SF-295 CNS
# SNB-75 CNS = tested on: SNB-75 CNS
# U251 CNS = tested on: U251 CNS
# BT-549 breast = tested on: BT-549 breast
# DU-145 prostate = tested on: DU-145 prostate
# T-47D breast = tested on: T-47D breast
# MDA-N = tested on: MDA-N
SMILES,TGI (A549 NSCLC),TGI (ACHN renal),TGI (HCC-2998 colon),TGI (IGROV1 ovarian),TGI (K-562 leukemia),TGI (KM12 colon),TGI (LOX IMVI melanoma),TGI (MALME-3M melanoma),TGI (NCI-H23 lung),TGI (NCI-H522 lung),TGI (OVCAR-4 ovarian),TGI (OVCAR-8 ovarian),TGI (RXF 393 renal),TGI (SF-295 CNS),TGI (SNB-75 CNS),TGI (U251 CNS),TGI (BT-549 breast),TGI (DU-145 prostate),TGI (T-47D breast),TGI (MDA-N)
CC#CC#C/C=C1\C=CC2(OC=CC2O)O1 (stereo not drawn),> 23.3 µM,> 23.3 µM,> 23.3 µM,> 23.3 µM,> 23.3 µM,7.3 µM,> 23.3 µM,> 23.3 µM,> 23.3 µM,> 20.3 µM,> 23.3 µM,> 23.3 µM,> 22 µM,> 23.3 µM,> 23.3 µM,> 23.3 µM,–,–,–,–
S=C1NNC2(C(=S)N1)c1ccccc1-c1ccccc12,> 10 µM,–,> 10 µM,> 10 µM,> 10 µM,> 10 µM,> 10 µM,> 10 µM,> 10 µM,–,> 10 µM,> 10 µM,–,–,> 10 µM,> 10 µM,> 10 µM,> 10 µM,> 10 µM,–
C[C@@H](c1ccccc1)N1CO[C@@]2(C#Cc3ccc4c(c3)OCO4)CCC[C@@H]12,29.6 µM,> 100 µM,34.7 µM,22.9 µM,96.2 µM,34.7 µM,25.2 µM,–,28.8 µM,–,28.4 µM,27 µM,24.4 µM,28.1 µM,27.9 µM,28.1 µM,–,29.7 µM,34 µM,37.7 µM
CC(C)c1c(O[Si](C(C)C)(C(C)C)C(C)C)cc2c(c1O)CC[C@H]1C(C)(C)CCC[C@]21C,> 100 µM,> 100 µM,–,> 100 µM,> 100 µM,> 100 µM,> 100 µM,> 100 µM,> 100 µM,> 100 µM,> 100 µM,> 100 µM,> 100 µM,> 100 µM,> 100 µM,> 100 µM,–,> 100 µM,–,> 100 µM
NC1NCCC(=O)N1CCc1c[nH]c2ccccc12 (stereo not drawn),69.3 µM,55.5 µM,35.2 µM,43.1 µM,51 µM,29.8 µM,30.2 µM,40.1 µM,38.6 µM,> 100 µM,80.7 µM,89.1 µM,43.5 µM,64.6 µM,22.9 µM,> 100 µM,–,63 µM,> 100 µM,34.3 µM
O=C(O)c1ccc(Nc2cnc3cc(C(F)(F)F)ccc3n2)cc1,> 100 µM,> 100 µM,80.7 µM,> 100 µM,> 100 µM,> 100 µM,> 100 µM,> 100 µM,> 100 µM,60.6 µM,–,> 100 µM,> 100 µM,> 100 µM,> 100 µM,> 100 µM,–,> 100 µM,53.8 µM,> 100 µM
COc1ccc(/C=C/C(=O)CCN2CCN(CCC(=O)/C=C/c3ccc(OC)cc3)CC2)cc1,49.5 µM,27.2 µM,24.7 µM,25.9 µM,37.9 µM,23 µM,11.1 µM,35.9 µM,30.1 µM,–,50 µM,42.4 µM,17.2 µM,20.8 µM,58.6 µM,26.6 µM,39.9 µM,71.1 µM,–,10.5 µM
COC(=O)C1=CCC2c3[nH]c4ccccc4c3CCN2C1 (stereo not drawn),> 354 µM,> 354 µM,> 354 µM,> 354 µM,> 354 µM,> 354 µM,> 354 µM,> 354 µM,> 354 µM,> 354 µM,–,> 354 µM,> 354 µM,> 354 µM,–,> 354 µM,–,–,–,–
c1ccc2c(c1)-c1ccccc1C2NC1=NCCO1,> 100 µM,> 100 µM,33.3 µM,40.3 µM,> 100 µM,33.2 µM,48.3 µM,27 µM,> 100 µM,51.4 µM,> 100 µM,57.2 µM,> 100 µM,> 100 µM,49.5 µM,> 100 µM,–,> 100 µM,> 100 µM,24 µM
Cn1c(=O)n(C2(C)CSC2)c2ccccc21,> 100 µM,> 100 µM,> 100 µM,> 100 µM,> 100 µM,> 100 µM,> 100 µM,–,> 100 µM,> 100 µM,> 100 µM,> 100 µM,> 100 µM,> 100 µM,> 100 µM,> 100 µM,–,–,–,–
CC(N)C(C)c1ccccc1 (stereo not drawn),> 100 µM,> 100 µM,> 100 µM,> 100 µM,> 100 µM,> 100 µM,> 100 µM,> 100 µM,> 100 µM,> 100 µM,> 100 µM,> 100 µM,> 100 µM,> 100 µM,> 100 µM,> 100 µM,–,–,–,–
C=C(C)[C@H]1CC(=O)[C@@]2(C)C[C@H]3O[C@]3(C)CC/C=C(\C)CC[C@H]12,> 100 µM,> 100 µM,> 100 µM,> 100 µM,47.2 µM,54.6 µM,> 100 µM,> 100 µM,> 100 µM,> 100 µM,> 100 µM,> 100 µM,74.1 µM,> 100 µM,> 100 µM,> 100 µM,–,> 100 µM,> 100 µM,> 100 µM
CSC1=Nc2ccccc2N=C(c2ccccc2)C1,> 100 µM,> 100 µM,> 100 µM,> 100 µM,> 100 µM,> 100 µM,32.2 µM,> 100 µM,> 100 µM,> 100 µM,> 100 µM,> 100 µM,71.6 µM,> 100 µM,> 100 µM,> 100 µM,–,–,–,–
O=C1CN(c2ccccc2)C(=O)CN1NCNN1CC(=O)N(c2ccccc2)CC1=O,> 100 µM,> 100 µM,> 100 µM,> 100 µM,–,> 100 µM,–,> 100 µM,> 100 µM,> 100 µM,> 100 µM,> 100 µM,> 100 µM,> 100 µM,> 100 µM,> 100 µM,> 100 µM,> 100 µM,–,> 100 µM
COc1cccc(/C=N/[N-]C(N)=O)c1[O-].[Co+2].[OH3+].c1ccncc1,> 100 µM,> 100 µM,> 100 µM,> 100 µM,–,> 100 µM,> 100 µM,> 100 µM,> 100 µM,> 100 µM,> 100 µM,> 100 µM,> 100 µM,> 100 µM,> 100 µM,> 100 µM,–,–,–,–
COc1cc(OC)c(/C=N\Nc2nc3ccccc3c(=O)n2-c2ccccc2)c(OC)c1,> 78.5 µM,38.8 µM,> 100 µM,> 100 µM,> 100 µM,> 31.6 µM,69.6 µM,79.3 µM,> 100 µM,> 100 µM,> 86.1 µM,> 64 µM,55 µM,65.1 µM,> 100 µM,> 100 µM,–,> 94.1 µM,64.5 µM,43.9 µM
COC(=O)C(C(=O)C(=O)Nc1ccccc1C)c1nc2ccc([N+](=O)[O-])cc2[nH]c1=O (stereo not drawn),> 100 µM,> 100 µM,> 100 µM,> 100 µM,> 100 µM,> 100 µM,> 100 µM,> 100 µM,> 100 µM,> 100 µM,> 100 µM,> 100 µM,> 100 µM,> 100 µM,> 100 µM,> 100 µM,–,–,–,–
CCCC(C(=O)OC)C1N=C(NC#N)N(Cc2ccccc2)C1=O (stereo not drawn),> 100 µM,> 100 µM,> 100 µM,> 100 µM,> 100 µM,> 100 µM,> 100 µM,> 100 µM,> 100 µM,> 100 µM,> 100 µM,> 100 µM,> 100 µM,> 100 µM,81.1 µM,> 100 µM,–,–,–,–
CC1CCc2c(sc3ncnc(N/N=C/c4ccc(Cl)cc4)c23)C1 (stereo not drawn),> 100 µM,94.9 µM,> 100 µM,> 100 µM,48.1 µM,–,70.6 µM,> 100 µM,> 100 µM,65.1 µM,–,> 100 µM,91.2 µM,75.5 µM,> 100 µM,> 100 µM,–,–,–,–
CC(C)[Si](Oc1ccc(CC2N(C(=O)c3ccc([N+](=O)[O-])cc3)C(CCc3ccccc3)CC2(C)C=O)cc1)(C(C)C)C(C)C (stereo not drawn),–,> 100 µM,> 100 µM,> 100 µM,–,–,> 100 µM,> 100 µM,> 100 µM,> 100 µM,> 100 µM,42.5 µM,28.2 µM,> 100 µM,–,> 100 µM,> 100 µM,> 100 µM,> 100 µM,–
COC(=O)c1c2c(cc3c1CC1(C3)Cc3cc4c(c(C(=O)OC)c3C1)CCC4)CCC2,> 100 µM,> 100 µM,> 100 µM,> 100 µM,> 100 µM,> 100 µM,> 100 µM,> 100 µM,> 100 µM,> 100 µM,> 100 µM,> 100 µM,> 100 µM,> 100 µM,–,> 100 µM,–,–,> 100 µM,> 100 µM
CCN(CC)C(=O)CC12CCCCC1=Nc1ccccc12 (stereo not drawn),> 100 µM,> 100 µM,> 100 µM,> 100 µM,> 100 µM,> 100 µM,> 100 µM,> 100 µM,> 100 µM,–,> 100 µM,> 100 µM,–,> 100 µM,> 100 µM,> 100 µM,–,–,–,–
N=c1oc2cc(O)ccc2cc1C(=O)Nc1cccc2ccccc12,23.2 µM,15.9 µM,12.9 µM,14.4 µM,> 42.7 µM,> 36.2 µM,18.4 µM,15.5 µM,12.9 µM,7.47 µM,> 51.1 µM,18.3 µM,18.7 µM,23.2 µM,13.9 µM,12.4 µM,11.5 µM,20 µM,19.6 µM,–
C=C1CN2CCc3c([nH]c4ccccc34)C2CC1CC(=O)N(C)C (stereo not drawn),> 309 µM,> 309 µM,> 309 µM,> 309 µM,> 309 µM,> 309 µM,> 309 µM,> 309 µM,> 309 µM,> 309 µM,–,> 309 µM,> 309 µM,> 309 µM,–,> 309 µM,–,–,–,–
Cc1ccc(S(=O)(=O)Nn2c(S)c(C#N)c(-c3ccc(Cl)cc3)c(C#N)c2=O)cc1,> 100 µM,> 100 µM,> 100 µM,59.4 µM,> 100 µM,88.4 µM,> 100 µM,> 100 µM,> 100 µM,37.4 µM,43.2 µM,50.8 µM,> 100 µM,> 100 µM,> 100 µM,58 µM,41.9 µM,> 100 µM,–,–
C=CCOCn1cnc2c(=O)[nH]c(N)nc21,> 100 µM,> 100 µM,> 100 µM,> 100 µM,> 100 µM,> 100 µM,> 100 µM,> 100 µM,> 100 µM,–,> 100 µM,> 100 µM,–,> 100 µM,> 100 µM,> 100 µM,–,> 100 µM,> 100 µM,> 100 µM
COc1ccc(Nc2cc(=O)[nH]c(=O)[nH]2)cc1,> 100 µM,> 100 µM,> 100 µM,> 100 µM,> 100 µM,> 100 µM,> 100 µM,> 100 µM,> 100 µM,–,> 100 µM,> 100 µM,> 100 µM,> 100 µM,> 100 µM,> 100 µM,> 100 µM,> 100 µM,–,> 100 µM
N#C/C(=C\c1ccc[nH]1)C(=O)c1ccccc1,> 100 µM,> 100 µM,> 100 µM,–,> 100 µM,> 100 µM,> 100 µM,> 100 µM,> 100 µM,> 100 µM,> 100 µM,> 100 µM,> 100 µM,> 100 µM,> 100 µM,> 100 µM,–,–,–,–
